Measured values reported in paper PMC3489029 (Journal of the American Chemical Society, 2012).

What was measured:
[1] = biological target: cell wall binding domain of the endolysin PlyL (Bacillus anthracis, UniProt A0A6H3AMF3); assay: biochemical; set-up: species or system Bacillus anthracis bacteriophage
[2] = biological target: cell wall binding domain of the endolysin PlyG (Bacillus phage Gamma, UniProt Q8LTE6); assay: biochemical; set-up: species or system Bacillus anthracis bacteriophage
Chain of cell wall binding domain of the endolysin PlyG (Q8LTE6 166-233 limits assumed): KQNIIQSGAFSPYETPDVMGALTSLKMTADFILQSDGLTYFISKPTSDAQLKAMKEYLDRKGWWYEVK

Chain of cell wall binding domain of the endolysin PlyL (A0A6H3AMF3 160-234 limits assumed): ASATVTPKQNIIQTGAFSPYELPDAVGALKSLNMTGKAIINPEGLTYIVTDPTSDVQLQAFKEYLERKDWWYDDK

Row | SMILES | Kd [1] [µM] | binding to PlyL in words [1] | Kd [2] [µM] | fold reduced affinity compared to tetrasaccharide 3 [1] [fold]
1 | CC(=O)N[C@@H]1[C@H](O[C@H]2[C@H](O)[C@@H](NC(C)=O)[C@H](OCCCCCN)O[C@@H]2CO)O[C@H](CO)[C@@H](O[C@H]2O[C@H](CO)[C@@H](O)[C@H](O[C@H]3O[C@H](CO)[C@H](O)[C@H](O)[C@H]3O)[C@H]2NC(C)=O)[C@@H]1O [Compound 4] | 153 ± 10 | complexed poorly with the protein | 136 ± 7 | –
2 | CC(=O)N[C@@H]1[C@H](O[C@H]2[C@H](O)[C@@H](NC(C)=O)[C@H](OCCCCCN)O[C@@H]2CO)O[C@H](CO)[C@@H](O)[C@@H]1O [Compound 6] | 110 ± 9 | – | 49 ± 2 | –
3 | CC(=O)N[C@@H]1[C@H](O[C@H]2[C@H](O)[C@@H](NC(C)=O)[C@H](OCCCCCN)O[C@@H]2CO)O[C@H](CO)[C@@H](O[C@H]2O[C@H](CO)[C@@H](O)[C@H](O)[C@H]2NC(C)=O)[C@@H]1O [Compound 2] | 13.5 | – | 8.6 ± 0.4 | –
4 | CC(=O)N[C@@H]1[C@H](O[C@H]2[C@H](O)[C@@H](NC(C)=O)[C@H](OCCCCCN)O[C@@H]2CO)O[C@H](CO)[C@@H](O[C@H]2O[C@H](CO)[C@H](O)[C@H](O)[C@H]2NC(C)=O)[C@@H]1O [Compound 7] | 43 ± 11 | – | 19.5 ± 7.5 | –
5 | CC(=O)N[C@@H]1[C@H](O[C@H]2[C@H](O[C@H]3O[C@H](CO)[C@H](O)[C@H](O)[C@H]3O)[C@@H](NC(C)=O)[C@H](OCCCCCN)O[C@@H]2CO)O[C@H](CO)[C@@H](O[C@H]2O[C@H](CO)[C@@H](O)[C@H](O)[C@H]2NC(C)=O)[C@@H]1O [Compound 5] | 6.2 ± 2 | – | 4.1 ± 0.5 | –
6 | CC(=O)N[C@@H]1[C@H](O[C@H]2[C@H](O)[C@@H](NC(C)=O)[C@H](OCCCCCN)O[C@@H]2CO)O[C@H](CO)[C@@H](O[C@H]2O[C@H](CO)[C@@H](O[C@@H]3O[C@H](CO)[C@H](O)[C@H](O)[C@H]3O)[C@H](O)[C@H]2NC(C)=O)[C@@H]1O [Compound 3] | 1.1 | exceptional high affinity | 2.1 ± 1.1 | –
7 | CC(=O)N[C@@H]1[C@H](O[C@H]2[C@H](O[C@H]3O[C@H](CO)[C@H](O)[C@H](O)[C@H]3O)[C@@H](NC(C)=O)[C@H](OCCCCCN)O[C@@H]2CO)O[C@H](CO)[C@@H](O[C@H]2O[C@H](CO)[C@@H](O[C@@H]3O[C@H](CO)[C@H](O)[C@H](O)[C@H]3O)[C@H](O[C@H]3O[C@H](CO)[C@H](O)[C@H](O)[C@H]3O)[C@H]2NC(C)=O)[C@@H]1O [Compound 1] | 23 ± 2 | – | 23.3 ± 0.5 | 10
